According to the CheMixHub viscosity set:

Assay: xn = mol fraction of the nth substance listed

CCCCCCCCCCO + CCOC(C)=O
viscosity [mPa·s], 101.33 kPa
Conditions | x2 = 0.1664 | x2 = 0.3099 | x2 = 0.4348 | x2 = 0.545 | x2 = 0.6423 | x2 = 0.7293 | x2 = 0.8073 | x2 = 0.8778 | x2 = 0.9418
298.15 K | 6.2 | 3.758 | 2.442 | 1.698 | 1.238 | 0.936 | 0.809 | 0.657 | 0.521
303.15 K | 5.263 | 3.279 | 2.171 | 1.533 | 1.235 | 0.864 | 0.719 | 0.613 | 0.497
308.15 K | 4.52 | 2.876 | 1.935 | 1.384 | 1.032 | 0.796 | 0.647 | 0.583 | 0.477

Cc1ccccc1C + CCOC(C)=O
Conditions | viscosity [mPa·s]
298.15 K, 101 kPa, x2 = 0.0459 | 0.74
298.15 K, 101 kPa, x2 = 0.1515 | 0.698
298.15 K, 101 kPa, x2 = 0.2504 | 0.661
298.15 K, 101 kPa, x2 = 0.349 | 0.625
298.15 K, 101 kPa, x2 = 0.4636 | 0.586
298.15 K, 101 kPa, x2 = 0.4948 | 0.576
298.15 K, 101 kPa, x2 = 0.5519 | 0.557
298.15 K, 101 kPa, x2 = 0.6488 | 0.527
298.15 K, 101 kPa, x2 = 0.7509 | 0.496
298.15 K, 101 kPa, x2 = 0.8487 | 0.468
298.15 K, 101 kPa, x2 = 0.9146 | 0.45
303.15 K, 101.32 kPa, x2 = 0.0599 | 0.679
303.15 K, 101.32 kPa, x2 = 0.1789 | 0.638
303.15 K, 101.32 kPa, x2 = 0.2918 | 0.601
303.15 K, 101.32 kPa, x2 = 0.4303 | 0.557
303.15 K, 101.32 kPa, x2 = 0.4994 | 0.535
303.15 K, 101.32 kPa, x2 = 0.5537 | 0.52
303.15 K, 101.32 kPa, x2 = 0.6001 | 0.507
303.15 K, 101.32 kPa, x2 = 0.6951 | 0.483
303.15 K, 101.32 kPa, x2 = 0.7859 | 0.457
303.15 K, 101.32 kPa, x2 = 0.873 | 0.437
303.15 K, 101.32 kPa, x2 = 0.9583 | 0.414
308.15 K, 101 kPa, x2 = 0.0459 | 0.643
308.15 K, 101 kPa, x2 = 0.1515 | 0.61
308.15 K, 101 kPa, x2 = 0.2504 | 0.579
308.15 K, 101 kPa, x2 = 0.349 | 0.551
308.15 K, 101 kPa, x2 = 0.4636 | 0.518
308.15 K, 101 kPa, x2 = 0.4948 | 0.51
308.15 K, 101 kPa, x2 = 0.5519 | 0.495
308.15 K, 101 kPa, x2 = 0.6488 | 0.47
308.15 K, 101 kPa, x2 = 0.7509 | 0.444
308.15 K, 101 kPa, x2 = 0.8487 | 0.421
308.15 K, 101 kPa, x2 = 0.9146 | 0.406
313.15 K, 101.32 kPa, x2 = 0.2056 | 0.565
313.15 K, 101.32 kPa, x2 = 0.4079 | 0.508
313.15 K, 101.32 kPa, x2 = 0.5023 | 0.483
313.15 K, 101.32 kPa, x2 = 0.5988 | 0.459
313.15 K, 101.32 kPa, x2 = 0.8018 | 0.411

OCCOCCOCCO + CCOC(C)=O
101 kPa
Conditions | viscosity [mPa·s]
298.15 K, x2 = 0.1482 | 22.05
308.15 K, x2 = 0.0466 | 18.65
